Measured values as given in patent publication US5055459A, “Selective elimination of malignant cells from bone marrow by bis (acyloxy) propylphosphoramidates” (Board of Regents, The University of Texas, priority 1989, dated 1991).
≈ marks a conversion by molar mass, not a printed value. Entries after “also recorded” stand apart in the source; their conditions may differ.

Columns and labels:
[1] = tested on: KBM-3 leukemic CFC and GM-CFC in bone marrow; test: cells; type: cell-based, human
KBM-3/DOX = test: cells; type: cell-based, human; conditions: Homo sapiens
HL-60/AMSA = test: cells; type: cell-based; conditions: Homo sapiens
in vitro = conditions: human, bone marrow gm-cfc
KBM-3/AMSA = test: cells; type: cell-based, human; conditions: Homo sapiens
[2] = Stability of frozen stock solution; type: physicochemical; conditions: frozen at -80° C., stock solution 265 uM
Method: In the initial experiments, acetaldoifosphamide (1-C) was weighed and dissolved in Dulbecco's phosphate-buffered saline (pH 7.4) (GIBCO, Grand Island, N.Y.) supplemented with Ca++ (10 mg %) and glucose (100 mg %) (enriched PBS) immediately prior to each experiment. […] In subsequent experiments a frozen stock solution was used; aliquots were thawed as necessary immediately prior to use.

[3] = tested on: GM-CFC from normal human bone marrow
[4] = tested on: mononuclear cells from normal bone marrow (GM-CFC); test: cells; conditions: Homo sapiens, 1 h
[5] = Stability in phosphate-buffered saline
HL-60 = test: Clonogenic assay, drug in agar, prolonged exposure (Table 8, FIG. 11); type: cell-based; conditions: Homo sapiens, drug added to agar plates
KBM-3 = test: as above; type: cell-based; conditions: Homo sapiens, drug added to agar plates
[6] = tested on: human myeloid cell line KBM-3; test: cells
[7] = tested on: mononuclear cells from normal bone marrow (GM-CFC)
[8] = tested on: GM-CFC from normal human bone marrow; test: Long-term suspension culture: GM-CFC regrowth on autologous irradiated adherent cell layers (Table 9); type: cell-based; conditions: for GM-CFC × 10^-3 per adherent cell layer: end of culture period; for GM-CFC × 10^-3 per adherent cell layer / GM-CFC × 10^-3 per culture: average ± S.D.
Method: (§1) A modification of previously reported techniques was used (Gartner and Kaplan, 1980; Greenberg et al., 1981; Potter et al., 1981; Coulombel et al., 1983). Briefly, 1×10^7 mononuclear bone marrow cells were suspended in 10 ml IMDM supplemented with 12.5% horse serum, 12.5% FCS and 5×10^-6 M hydrocortisone succinate (HyC) (Abbott Laboratories, N. Chicago, Ill.) in 25 cm^2 tissue culture flasks (Corning Glass Works, Corning N.Y.). After 8 to 10 days an adherent fibroblast (feeder) layer, supplying a hemopoietic microenvironment, was established. The non-adherent cells were washed off, and the feeder layer was irradiated with 3.0 Gy gamma-irradiation at a dose rate of 3.3 Gy per min. A second bone marrow sample was obtained from the same donor, and low-density mononuclear cells were isolated as above. The cells were exposed for 60 min at 37° C. to increasing drug concentrations. After two washings, the cells were suspended in 10 ml IMDM with 10% FCS and 5×10^-6 M HyC, and then added to the previously established feeder layers. All cultures were established in duplicate, and all flasks were incubated for five weeks at 37° C. in an atmosphere of 5% CO2 and 12% O2 balanced with N2 to 100%. Twice weekly, 85% of the medium was replaced with fresh medium. Immediately after drug exposure, and at weekly intervals up to 5 weeks, one ml of the cell suspension was removed and monitored for the presence of GM-CFC using the soft agar assay as described above. The total number of surviving GM-CFC formed from untreated cells served as a quality control of the culture system and as a reference (positive controls) for calculating the surviving GM-CFC fraction in cultures of drug-treated cells Flasks containing irradiated stromal cell layers alone were subjected to the same twice-weekly media changes and were monitored weekly for possible regrowth of GM-CFC (negative controls). After five weeks, all non-adherent cells were removed from the flasks. The feeder layers were carefully rinsed twice with 10 ml of PBS, then treated with 0.2% trypsin in EDTA solution (GIBCO Laboratories, Grand Island, N.Y.) for 2-3 min at 37° C. After washing, the resulting single cell suspensions were assayed for GM-CFC.
(§2) ^a Average values ± S.D. for three experiments. In each experiment
(§3) the cultures were conducted in duplicates.
(§4) ^b At the end of the culture period. For details see Materials and […]

[9] = as above; type: cell-based, human; conditions: human, bone marrow gm-cfc; concentration used in long-term suspension cultures; read-out: detectable GM-CFC abolished
Method: as §1, §2, §3, §4

[10] = tested on: human myeloid cell line KBM-3
[11] = background; cited from earlier work
[12] = tested on: L1210 lymphatic leukemia cells; test: cells; type: cell-based, murine; conditions: Mus musculus, L1210, 72 h, read-out: ED50

**Q.** With `CC(=O)OC(CCOP(=O)(NCCCl)NCCCl)OC(C)=O` [acetaldoifosphamide] as the molecule, how does the “regrowth / elimination of leukemic cells” value [1] read?
**A.** leukemic cell proliferation was not evident; also recorded: no regrowth of leukemic CFC was observed; also recorded: the leukemia was completely eliminated with full recovery of GM-CFC production

**Q.** And the log reduction at 39.6 µM ([1]; Homo sapiens, 1 h, read-out: reduction of leukemic cells)?
**A.** > 5

**Q.** What about the IC50 (KBM-3/DOX) of the same molecule?
**A.** 160 nM

**Q.** What about the IC50 (HL-60/AMSA) of the same molecule?
**A.** 560 nM

**Q.** What about the cytotoxicity at 1 h (in vitro) of the same molecule?
**A.** 95 to 100%

**Q.** And the IC50 (KBM-3/AMSA)?
**A.** 680 nM

**Q.** And the “retention of full cytotoxic activity on storage” value [2]?
**A.** retained full cytotoxic activity for more than four months

**Q.** And the GM-CFC doubling time [3]?
**A.** 6 to 12 h

**Q.** And the “GM-CFC recovery kinetics / progenitor sparing, in words” value [3]?
**A.** has a sparing effect on very immature hemopoietic stem cells

**Q.** And the “delay in proliferation of the GM-CFC pool” value [3]?
**A.** 24 h

**Q.** And the “detectable GM-CFC after highest concentration” value [3]?
**A.** initially had no detectable GM-CFC, however after day two rapid GM-CFC proliferation was apparent

**Q.** What about the IC50 [4] of the same molecule?
**A.** 11500 to 12500 nM

**Q.** And the half-life ([5]; pbs, pH 7.4)?
**A.** > 80 h

**Q.** What about the “stability in saline solution” value ([5]; saline solution) of the same molecule?
**A.** stable in saline solution

**Q.** And the IC50 (HL-60)?
**A.** 300 nM

**Q.** And the IC50 (KBM-3)?
**A.** 200 nM

**Q.** What about the IC90 [6] of the same molecule?
**A.** ~1300 nM

**Q.** And the “effect of erythrocytes on activity” value [7]?
**A.** decreases the activity

**Q.** And the “cytotoxicity relative to 4-HC on a molar basis” value ([7]; human)?
**A.** 8-10 times

**Q.** What about the “GM-CFC × 10^-3 per adherent cell layer” value ([8]; 26.4 uM) of the same molecule?
**A.** 0.22 ± 0.09 GM-CFC × 10^-3 per adherent ce

**Q.** What about the “GM-CFC × 10^-3 per culture” value ([8]; 26.4 uM, week 0) of the same molecule?
**A.** 2.8 ± 1.5 GM-CFC × 10^-3 per culture

**Q.** And the “GM-CFC × 10^-3 per culture” value ([8]; 26.4 uM, week 1)?
**A.** 15.0 ± 1.8 GM-CFC × 10^-3 per culture

**Q.** What about the “GM-CFC × 10^-3 per culture” value ([8]; 26.4 uM, week 2) of the same molecule?
**A.** 18.2 ± 4.6 GM-CFC × 10^-3 per culture

**Q.** What about the “GM-CFC × 10^-3 per culture” value ([8]; 26.4 uM, week 3) of the same molecule?
**A.** 2.9 ± 1.1 GM-CFC × 10^-3 per culture

**Q.** What about the “GM-CFC × 10^-3 per culture” value ([8]; 26.4 uM, week 4) of the same molecule?
**A.** 0.8 ± 0.4 GM-CFC × 10^-3 per culture

**Q.** What about the “GM-CFC × 10^-3 per culture” value ([8]; 26.4 uM, week 5) of the same molecule?
**A.** 0.09 ± 0.03 GM-CFC × 10^-3 per culture

**Q.** And the “GM-CFC content of adherent cell layer vs controls” value ([8]; 33 uM, end of five weeks)?
**A.** contained more GM-CFC than the controls

**Q.** What about the “GM-CFC × 10^-3 per adherent cell layer” value ([8]; 33.0 uM) of the same molecule?
**A.** 0.12 ± 0.04 GM-CFC × 10^-3 per adherent ce

**Q.** And the “GM-CFC × 10^-3 per culture” value ([8]; 33.0 uM, week 0)?
**A.** 0.1 ± 0.04 GM-CFC × 10^-3 per culture

**Q.** And the “GM-CFC × 10^-3 per culture” value ([8]; 33.0 uM, week 1)?
**A.** 7.7 ± 1.3 GM-CFC × 10^-3 per culture

**Q.** What about the “GM-CFC × 10^-3 per culture” value ([8]; 33.0 uM, week 2) of the same molecule?
**A.** 18.6 ± 2.5 GM-CFC × 10^-3 per culture

**Q.** And the “GM-CFC × 10^-3 per culture” value ([8]; 33.0 uM, week 3)?
**A.** 2.6 ± 0.3 GM-CFC × 10^-3 per culture

**Q.** What about the “GM-CFC × 10^-3 per culture” value ([8]; 33.0 uM, week 4) of the same molecule?
**A.** 1.1 ± 0.3 GM-CFC × 10^-3 per culture

**Q.** And the “GM-CFC × 10^-3 per culture” value ([8]; 33.0 uM, week 5)?
**A.** 0.13 ± 0.06 GM-CFC × 10^-3 per culture

**Q.** And the “GM-CFC content of adherent cell layer vs controls” value ([8]; 39.6 uM, end of five weeks)?
**A.** had the same GM-CFC content as the controls

**Q.** What about the “GM-CFC × 10^-3 per adherent cell layer” value ([8]; 39.6 uM) of the same molecule?
**A.** 0.06 ± 0.03 GM-CFC × 10^-3 per adherent ce

**Q.** What about the “GM-CFC × 10^-3 per culture” value ([8]; 39.6 uM, week 0) of the same molecule?
**A.** 0.3 ± 0.2 GM-CFC × 10^-3 per culture

**Q.** What about the “GM-CFC × 10^-3 per culture” value ([8]; 39.6 uM, week 1) of the same molecule?
**A.** 16.8 ± 7.6 GM-CFC × 10^-3 per culture

**Q.** And the “GM-CFC × 10^-3 per culture” value ([8]; 39.6 uM, week 2)?
**A.** 18.5 ± 6.5 GM-CFC × 10^-3 per culture

**Q.** And the “GM-CFC × 10^-3 per culture” value ([8]; 39.6 uM, week 3)?
**A.** 3.9 ± 1.3 GM-CFC × 10^-3 per culture

**Q.** And the “GM-CFC × 10^-3 per culture” value ([8]; 39.6 uM, week 4)?
**A.** 0.8 ± 0.3 GM-CFC × 10^-3 per culture

**Q.** What about the “GM-CFC × 10^-3 per culture” value ([8]; 39.6 uM, week 5) of the same molecule?
**A.** 0.10 ± 0.02 GM-CFC × 10^-3 per culture

**Q.** What about the “number of GM-CFC in non-adherent and adherent population” value ([8]; 53 uM, end of five weeks) of the same molecule?
**A.** subnormal number of GM-CFC

**Q.** And the “GM-CFC × 10^-3 per adherent cell layer” value ([8]; 53.0 uM)?
**A.** 0.03 ± 0.01 GM-CFC × 10^-3 per adherent ce

**Q.** What about the “GM-CFC × 10^-3 per culture” value ([8]; 53.0 uM, week 0) of the same molecule?
**A.** 0 GM-CFC × 10^-3 per culture

**Q.** And the “GM-CFC × 10^-3 per culture” value ([8]; 53.0 uM, week 1)?
**A.** 0.2 ± 0.0 GM-CFC × 10^-3 per culture

**Q.** What about the “GM-CFC × 10^-3 per culture” value ([8]; 53.0 uM, week 2) of the same molecule?
**A.** 1.2 ± 0.2 GM-CFC × 10^-3 per culture

**Q.** And the “GM-CFC × 10^-3 per culture” value ([8]; 53.0 uM, week 3)?
**A.** 0.3 ± 0.1 GM-CFC × 10^-3 per culture

**Q.** And the “GM-CFC × 10^-3 per culture” value ([8]; 53.0 uM, week 4)?
**A.** 0.06 ± 0.02 GM-CFC × 10^-3 per culture

**Q.** And the “GM-CFC × 10^-3 per culture” value ([8]; 53.0 uM, week 5)?
**A.** 0.006 ± 0.002 GM-CFC × 10^-3 per culture

**Q.** And the IC99 ([8]; Homo sapiens, 1 h, GM-CFC)?
**A.** 33 µM

**Q.** And the IC100 ([8]; Homo sapiens, 1 h, GM-CFC)?
**A.** 53 µM

**Q.** And the “time to recovery of GM-CFC to control level” value ([8]; after bone marrow exposure)?
**A.** ≤ 2 weeks

**Q.** And the “GM-CFC recovery to control levels” value ([8]; normal bone marrow, concentration abolishing more than 99% of GM-CFC)?
**A.** two to three weeks

**Q.** And the cytotoxicity at 1 h [9]?
**A.** > 99%

**Q.** What about the “activity against normal marrow GM-CFC versus leukemic myeloid CFC (KBM-3)” value [10] of the same molecule?
**A.** more active against normal marrow GM-CFC than against leukemic myeloid CFC

**Q.** And the “dependence of cytotoxicity on cell concentration” value [10]?
**A.** a 20-fold increase in cell concentration results in only a two-fold decrease in cytotoxicity

**Q.** And the “increase in clonogenic KBM-3 cell survival” value [10]?
**A.** 2 fold

**Q.** For `O=P1(N(CCCl)CCCl)NCCCO1` (stereo not drawn) [Cyclophosphamide, cyclophosphamide, reference compound], which “therapeutic index, in words” value [11] is on record?
**A.** higher therapeutic index than must other mustard-type alkylating agents

**Q.** And the IC50 [12]?
**A.** 20 µg/mL (≈ 76.6 µM)
